Data from patent publication US8138189B2, “Substituted benzene compounds as modulators of the glucocorticoid receptor” (Hoffman-La Roche Inc., priority 2009, dated 2012).

These compounds were tested against T1, full length human recombinant glucocorticoid receptor (Homo sapiens, UniProt P04150) (assay: Glucocorticoid Receptor Binding Assay (fluorescence polarization competitor assay, Fluormone GS Far Red tracer)).
T1 construct: partially purified full length human recombinant glucocorticoid receptor; purchased Panvera/Invitrogen PV4302
T1 sequence (P04150 1-777): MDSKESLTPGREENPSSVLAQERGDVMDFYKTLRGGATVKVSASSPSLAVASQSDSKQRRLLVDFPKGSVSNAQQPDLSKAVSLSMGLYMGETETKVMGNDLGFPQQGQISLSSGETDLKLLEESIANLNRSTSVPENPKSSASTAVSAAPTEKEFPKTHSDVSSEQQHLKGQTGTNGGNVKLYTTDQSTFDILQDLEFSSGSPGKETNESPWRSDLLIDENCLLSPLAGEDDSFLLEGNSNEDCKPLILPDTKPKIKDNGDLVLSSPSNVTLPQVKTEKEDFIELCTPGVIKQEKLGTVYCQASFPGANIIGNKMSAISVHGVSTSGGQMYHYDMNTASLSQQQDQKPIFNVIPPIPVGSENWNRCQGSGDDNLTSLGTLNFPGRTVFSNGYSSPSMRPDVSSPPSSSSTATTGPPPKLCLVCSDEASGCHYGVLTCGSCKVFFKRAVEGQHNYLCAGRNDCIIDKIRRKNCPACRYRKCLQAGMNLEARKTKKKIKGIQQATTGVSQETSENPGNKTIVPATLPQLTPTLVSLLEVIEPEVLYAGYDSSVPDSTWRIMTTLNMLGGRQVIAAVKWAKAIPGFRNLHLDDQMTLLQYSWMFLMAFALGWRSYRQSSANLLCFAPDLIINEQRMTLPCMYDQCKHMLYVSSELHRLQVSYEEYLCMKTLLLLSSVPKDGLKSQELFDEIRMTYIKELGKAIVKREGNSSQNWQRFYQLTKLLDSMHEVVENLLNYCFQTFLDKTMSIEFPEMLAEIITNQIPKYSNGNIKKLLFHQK
Outline: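 Serially diluted compounds competed with the tight-binding far-red fluorescent ligand for recombinant full-length human glucocorticoid receptor plus GR-stabilizing peptide (screening buffer pH 7.4; 3 h, 22 °C, dark). Polarization (610-660 nm) gave IC50 via sigmoidal dose-response fits, and Ki was derived by Cheng-Prusoff from tracer concentration and Kd.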
For `COC(=O)c1ccc(OCc2ccc([C@@H](C)[C@@](O)(c3ccnc(Cl)c3)C(F)(F)F)c(Cl)c2)nn1` (stereo in doubt) [Example 122, 6-{3-Chloro-4-[2-(2-chloro-pyridin-4-yl)-3,3,3-trifluoro-2-hydroxy-1-methyl-propyl]-benzyloxy}-pyridazine-3-carboxylic acid methyl ester], the Ki was 10.7 nM. For `C[C@H](c1ccc(COc2ccc(C(=O)O)nn2)cc1Cl)[C@@](O)(c1ccnc(Cl)c1)C(F)(F)F` (stereo in doubt) [Example 123, 6-{3-Chloro-4-[2-(2-chloro-pyridin-4-yl)-3,3,3-trifluoro-2-hydroxy-1-methyl-propyl]-benzyloxy}-pyridazine-3-carboxylic acid], the Ki was 34.3 nM. `COC(=O)c1cnc(OCc2ccc([C@@H](C)[C@@](O)(c3ccnc(Cl)c3)C(F)(F)F)c(Cl)c2)nc1` (stereo in doubt) [Example 124, 2-{3-Chloro-4-[2-(2-chloro-pyridin-4-yl)-3,3,3-trifluoro-2-hydroxy-1-methyl-propyl]-benzyloxy}-pyrimidine-5-carboxylic acid methyl ester] showed a Ki of 8.8 nM. With `C[C@H](c1ccc(COc2ncc(C(=O)O)cn2)cc1Cl)[C@@](O)(c1ccnc(Cl)c1)C(F)(F)F` (stereo in doubt) [Example 125, 2-{3-Chloro-4-[2-(2-chloro-pyridin-4-yl)-3,3,3-trifluoro-2-hydroxy-1-methyl-propyl]-benzyloxy}-pyrimidine-5-carboxylic acid] the Ki was 24.7 nM. `COC(=O)c1ccc(OCc2ccc([C@@H](C)[C@@](O)(c3ccnc(Cl)c3)C(F)(F)F)c(Cl)c2)nc1` (stereo in doubt) [Example 126, 6-{3-Chloro-4-[2-(2-chloro-pyridin-4-yl)-3,3,3-trifluoro-2-hydroxy-1-methyl-propyl]-benzyloxy}-nicotinic acid methyl ester] showed a Ki of 8.5 nM. `C[C@H](c1cc(Oc2cnc(C(=O)O)cn2)ccc1Cl)[C@@](O)(c1ccnc(Cl)c1)C(F)(F)F` (stereo in doubt) [Example 137, 5-{4-Chloro-3-[2-(2-chloro-pyridin-4-yl)-3,3,3-trifluoro-2-hydroxy-1-methyl-propyl]-phenoxy}-pyrazine-2-carboxylic acid] showed a Ki of 1580 nM. Compound `C[C@H](c1cc(Oc2ccc(C(=O)O)nn2)ccc1Cl)[C@@](O)(c1ccnc(Cl)c1)C(F)(F)F` (stereo in doubt) [Example 139, 6-{4-Chloro-3-[2-(2-chloro-pyridin-4-yl)-3,3,3-trifluoro-2-hydroxy-1-methyl-propyl]-phenoxy}-pyridazine-3-carboxylic acid] has a Ki of 404 nM. `C[C@@H](c1ccc(OCc2ccc(C(=O)O)cc2)cc1Cl)[C@](O)(c1cnc2ccccc2c1)C(F)(F)F` (stereo in doubt) [Example 141, 4-[3-Chloro-4-(3,3,3-trifluoro-2-hydroxy-1-methyl-2-quinolin-3-yl-propyl)-phenoxymethyl]-benzoic acid] gave a Ki of 1.5 nM. Work on `COC(=O)C1(c2ccc(COc3ccc([C@H](C)[C@](O)(c4cnc5ccccc5c4)C(F)(F)F)c(Cl)c3)cc2)CC1` (stereo in doubt) [Example 142, 1-{4-[3-Chloro-4-(3,3,3-trifluoro-2-hydroxy-1-methyl-2-quinolin-3-yl-propyl)-phenoxymethyl]-phenyl}-cyclopropanecarboxylic acid methyl ester] yielded a Ki of 6.6 nM. Compound `C[C@@H](c1ccc(OCc2ccc(C3(C(=O)O)CC3)cc2)cc1Cl)[C@](O)(c1cnc2ccccc2c1)C(F)(F)F` (stereo in doubt) [Example 143, 1-{4-[3-Chloro-4-(3,3,3-trifluoro-2-hydroxy-1-methyl-2-quinolin-3-yl-propyl)-phenoxymethyl]-phenyl}-cyclopropanecarboxylic acid] has a Ki of 4.6 nM. In the case of `COC(=O)Cc1ccc(COc2ccc([C@H](C)[C@](O)(c3cnc4ccccc4c3)C(F)(F)F)c(Cl)c2)cc1` (stereo in doubt) [Example 144, {4-[3-Chloro-4-(3,3,3-trifluoro-2-hydroxy-1-methyl-2-quinolin-3-yl-propyl)-phenoxymethyl]-phenyl}-acetic acid methyl ester], the Ki is reported as 3.6 nM. `C[C@@H](c1ccc(OCc2ccc(C(=O)O)cc2)cc1Cl)[C@](O)(c1cccc2cnccc12)C(F)(F)F` (stereo in doubt) [Example 148, 4-[3-Chloro-4-(3,3,3-trifluoro-2-hydroxy-2-isoquinolin-5-yl-1-methyl-propyl)-phenoxymethyl]-benzoic acid] showed a Ki of 1.3 nM. In the case of `C[C@@H](c1ccc(OCc2ccc(CC(=O)O)cc2)cc1Cl)[C@](O)(c1cccc2cnccc12)C(F)(F)F` (stereo in doubt) [Example 149, {4-[3-Chloro-4-(3,3,3-trifluoro-2-hydroxy-2-isoquinolin-5-yl-1-methyl-propyl)-phenoxymethyl]-phenyl}-acetic acid], the Ki is reported as 1.8 nM. `C[C@@H](c1ccc(-c2ccc(C(=O)O)c(F)c2)cc1Cl)[C@](O)(c1cccc2cnccc12)C(F)(F)F` (stereo in doubt) [Example 150, 3′-Chloro-3-fluoro-4′-(3,3,3-trifluoro-2-hydroxy-2-isoquinolin-5-yl-1-methyl-propyl)-biphenyl-4-carboxylic acid] was tested, and the Ki was 9.5 nM. `C[C@H](c1ccc(Oc2ccc(C(=O)O)cc2)cc1Cl)[C@@](O)(c1ccc(=O)n(C)c1)C(F)(F)F` (stereo in doubt) [Example 152, 4-{3-Chloro-4-[3,3,3-trifluoro-2-hydroxy-1-methyl-2-(1-methyl-6-oxo-1,6-dihydro-pyridin-3-yl)-propyl]-phenoxy}-benzoic acid] was tested, and the Ki was 3.3 nM. In the case of `COC(=O)c1ccc(Oc2ccc([C@@H](C)[C@@](O)(c3ccc(=O)n(C)c3)C(F)(F)F)c(Cl)c2)cc1Cl` (stereo in doubt) [Example 153, 2-Chloro-4-{3-chloro-4-[3,3,3-trifluoro-2-hydroxy-1-methyl-2-(1-methyl-6-oxo-1,6-dihydro-pyridin-3-yl)-propyl]-phenoxy}-benzoic acid methyl ester], the Ki is reported as 4.9 nM. In the case of `C[C@H](c1ccc(Oc2ccc(C(=O)O)c(Cl)c2)cc1Cl)[C@@](O)(c1ccc(=O)n(C)c1)C(F)(F)F` (stereo in doubt) [Example 154, 2-Chloro-4-{3-chloro-4-[3,3,3-trifluoro-2-hydroxy-1-methyl-2-(1-methyl-6-oxo-1,6-dihydro-pyridin-3-yl)-propyl]-phenoxy}-benzoic acid], the Ki is reported as 6.3 nM. Compound `C[C@H](c1ccc(Oc2ccc(C(=O)O)c(F)c2)cc1Cl)[C@@](O)(c1ccc(=O)n(C)c1)C(F)(F)F` (stereo in doubt) [Example 155, 4-{3-Chloro-4-[3,3,3-trifluoro-2-hydroxy-1-methyl-2-(1-methyl-6-oxo-1,6-dihydro-pyridin-3-yl)-propyl]-phenoxy}-2-fluoro-benzoic acid] has a Ki of 46.2 nM. `C[C@H](c1ccc(Oc2ccc(CC(=O)O)cc2)cc1Cl)[C@@](O)(c1ccc(=O)n(C)c1)C(F)(F)F` (stereo in doubt) [Example 158, (4-{3-Chloro-4-[3,3,3-trifluoro-2-hydroxy-1-methyl-2-(1-methyl-6-oxo-1,6-dihydro-pyridin-3-yl)-propyl]-phenoxy}-phenyl)-acetic acid] was tested, and the Ki was 7.1 nM.
